In paper PMC11864979, “First-in-class ultralong-target-residence-time p38α inhibitors as a mitosis-targeted therapy for colorectal cancer” (Nature Cancer, 2025):
Read-outs that look alike come from different tables or passages of the source.

Experiments:
Experiment in all cases: selectivity profiling in a panel of 340 wild-type kinases (Reaction Biology Europe)
Type in all cases: binding
340 wild-type kinases [1] = target: T1, 340 wild-type kinases (Homo sapiens, UniProt O14733)
T1 construct: purchased Reaction Biology Europe
T1 sequence (O14733 1-419): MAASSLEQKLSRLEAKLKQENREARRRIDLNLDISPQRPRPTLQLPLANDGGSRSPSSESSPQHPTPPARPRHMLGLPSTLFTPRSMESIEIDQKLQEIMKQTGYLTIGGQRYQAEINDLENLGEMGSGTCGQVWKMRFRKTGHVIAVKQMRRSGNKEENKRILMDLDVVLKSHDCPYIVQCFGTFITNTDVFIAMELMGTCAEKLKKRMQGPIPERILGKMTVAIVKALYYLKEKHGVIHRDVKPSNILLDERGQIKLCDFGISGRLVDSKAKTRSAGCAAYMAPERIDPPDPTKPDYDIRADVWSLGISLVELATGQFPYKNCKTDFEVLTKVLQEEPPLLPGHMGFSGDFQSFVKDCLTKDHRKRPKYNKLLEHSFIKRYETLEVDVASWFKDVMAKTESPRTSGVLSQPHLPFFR

340 wild-type kinases [2] = target: T2, 340 wild-type kinases (Homo sapiens, UniProt P06239)
T2 construct: purchased Reaction Biology Europe
T2 sequence (P06239 whole entry): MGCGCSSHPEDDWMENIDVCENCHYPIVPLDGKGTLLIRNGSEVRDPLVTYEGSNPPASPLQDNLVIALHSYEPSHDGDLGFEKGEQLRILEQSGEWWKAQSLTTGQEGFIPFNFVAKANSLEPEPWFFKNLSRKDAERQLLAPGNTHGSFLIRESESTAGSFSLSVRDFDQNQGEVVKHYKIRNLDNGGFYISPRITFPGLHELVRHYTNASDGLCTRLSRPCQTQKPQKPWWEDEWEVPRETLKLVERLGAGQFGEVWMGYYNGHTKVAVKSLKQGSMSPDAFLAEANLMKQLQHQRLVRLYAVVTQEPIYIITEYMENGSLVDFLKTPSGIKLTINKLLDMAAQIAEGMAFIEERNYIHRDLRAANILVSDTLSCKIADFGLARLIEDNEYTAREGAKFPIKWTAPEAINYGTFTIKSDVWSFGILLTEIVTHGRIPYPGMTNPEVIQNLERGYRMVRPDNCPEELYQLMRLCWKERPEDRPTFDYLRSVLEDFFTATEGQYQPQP

340 wild-type kinases [3] = target: T3, 340 wild-type kinases (Homo sapiens, UniProt P36896)
T3 construct: purchased Reaction Biology Europe
T3 sequence (P36896 24-505): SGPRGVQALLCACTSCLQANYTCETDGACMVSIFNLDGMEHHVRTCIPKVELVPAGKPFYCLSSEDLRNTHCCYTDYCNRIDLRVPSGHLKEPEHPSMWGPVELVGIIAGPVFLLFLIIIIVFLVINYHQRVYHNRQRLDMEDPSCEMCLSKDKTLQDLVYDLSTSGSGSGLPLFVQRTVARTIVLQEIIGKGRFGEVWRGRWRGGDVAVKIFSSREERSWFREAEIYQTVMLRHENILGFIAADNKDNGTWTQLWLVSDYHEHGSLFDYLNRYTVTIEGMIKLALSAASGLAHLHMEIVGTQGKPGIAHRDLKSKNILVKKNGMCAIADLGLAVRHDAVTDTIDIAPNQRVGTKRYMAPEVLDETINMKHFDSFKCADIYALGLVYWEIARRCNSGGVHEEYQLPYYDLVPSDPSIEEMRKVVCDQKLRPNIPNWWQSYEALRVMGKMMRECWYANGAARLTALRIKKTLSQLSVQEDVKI

340 wild-type kinases [4] = target: T4, 340 wild-type kinases (Homo sapiens, UniProt P80192)
T4 construct: purchased Reaction Biology Europe
T4 sequence (P80192 whole entry): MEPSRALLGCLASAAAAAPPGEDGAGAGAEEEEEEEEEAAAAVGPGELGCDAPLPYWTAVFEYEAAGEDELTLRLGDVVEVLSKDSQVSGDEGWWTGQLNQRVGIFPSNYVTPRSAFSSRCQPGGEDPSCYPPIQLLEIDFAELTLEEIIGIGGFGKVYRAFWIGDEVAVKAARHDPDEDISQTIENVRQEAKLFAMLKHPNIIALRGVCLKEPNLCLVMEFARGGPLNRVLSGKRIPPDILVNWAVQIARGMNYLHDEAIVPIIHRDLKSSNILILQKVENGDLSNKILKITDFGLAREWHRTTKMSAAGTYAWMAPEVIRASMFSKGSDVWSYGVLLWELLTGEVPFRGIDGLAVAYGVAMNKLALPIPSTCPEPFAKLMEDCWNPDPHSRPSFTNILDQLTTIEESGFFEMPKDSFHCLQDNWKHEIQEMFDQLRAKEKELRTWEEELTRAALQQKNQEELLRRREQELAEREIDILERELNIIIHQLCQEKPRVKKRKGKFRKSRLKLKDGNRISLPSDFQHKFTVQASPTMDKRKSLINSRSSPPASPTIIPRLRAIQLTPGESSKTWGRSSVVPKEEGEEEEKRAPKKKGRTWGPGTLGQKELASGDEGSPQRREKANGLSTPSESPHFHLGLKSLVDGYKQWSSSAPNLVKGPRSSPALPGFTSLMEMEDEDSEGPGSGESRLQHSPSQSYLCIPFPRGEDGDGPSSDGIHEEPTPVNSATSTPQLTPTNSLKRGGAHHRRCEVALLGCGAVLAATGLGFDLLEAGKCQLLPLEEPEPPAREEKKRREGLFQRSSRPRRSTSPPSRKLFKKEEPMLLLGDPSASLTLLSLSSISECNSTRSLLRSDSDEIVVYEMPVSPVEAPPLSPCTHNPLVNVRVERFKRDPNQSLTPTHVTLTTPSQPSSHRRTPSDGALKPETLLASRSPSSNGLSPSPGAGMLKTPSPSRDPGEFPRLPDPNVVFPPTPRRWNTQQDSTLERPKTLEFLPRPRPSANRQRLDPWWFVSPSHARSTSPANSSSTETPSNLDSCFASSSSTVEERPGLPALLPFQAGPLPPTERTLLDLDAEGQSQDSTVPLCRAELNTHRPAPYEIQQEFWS

340 wild-type kinases [5] = target: T5, 340 wild-type kinases (Homo sapiens, UniProt Q05513)
T5 construct: purchased Reaction Biology Europe
T5 sequence (Q05513 1-592): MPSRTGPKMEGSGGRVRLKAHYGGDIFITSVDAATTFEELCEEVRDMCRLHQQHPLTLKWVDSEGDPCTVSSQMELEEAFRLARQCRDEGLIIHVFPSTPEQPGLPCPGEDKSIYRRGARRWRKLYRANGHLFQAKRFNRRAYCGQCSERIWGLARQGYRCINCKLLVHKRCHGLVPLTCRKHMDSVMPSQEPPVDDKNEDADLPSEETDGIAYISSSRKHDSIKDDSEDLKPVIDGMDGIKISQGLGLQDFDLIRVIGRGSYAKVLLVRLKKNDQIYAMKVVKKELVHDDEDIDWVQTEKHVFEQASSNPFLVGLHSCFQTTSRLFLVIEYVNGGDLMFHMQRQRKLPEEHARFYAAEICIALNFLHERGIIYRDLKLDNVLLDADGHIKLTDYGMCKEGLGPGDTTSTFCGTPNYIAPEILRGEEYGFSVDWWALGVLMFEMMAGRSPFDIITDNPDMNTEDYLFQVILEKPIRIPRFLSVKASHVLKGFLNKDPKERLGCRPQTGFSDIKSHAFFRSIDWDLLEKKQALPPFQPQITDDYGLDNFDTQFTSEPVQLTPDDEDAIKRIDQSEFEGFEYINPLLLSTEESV

340 wild-type kinases [6] = target: T6, 340 wild-type kinases (Homo sapiens, UniProt Q15831)
T6 construct: purchased Reaction Biology Europe
T6 sequence (Q15831 1-433): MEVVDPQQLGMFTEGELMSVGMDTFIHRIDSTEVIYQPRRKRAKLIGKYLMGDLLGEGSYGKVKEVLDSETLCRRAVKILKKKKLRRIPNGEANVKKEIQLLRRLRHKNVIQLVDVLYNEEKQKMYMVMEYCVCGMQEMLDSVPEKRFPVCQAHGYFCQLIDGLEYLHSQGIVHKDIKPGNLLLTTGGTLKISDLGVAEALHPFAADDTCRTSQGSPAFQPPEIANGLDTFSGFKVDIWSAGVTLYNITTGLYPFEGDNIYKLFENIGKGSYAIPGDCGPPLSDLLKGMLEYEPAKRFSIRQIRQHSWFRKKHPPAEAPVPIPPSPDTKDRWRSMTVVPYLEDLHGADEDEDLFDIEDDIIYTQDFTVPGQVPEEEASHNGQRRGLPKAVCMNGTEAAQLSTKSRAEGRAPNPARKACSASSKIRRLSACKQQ

340 wild-type kinases [7] = target: T7, 340 wild-type kinases (Homo sapiens, UniProt Q16539)
T7 construct: purchased Reaction Biology Europe
T7 sequence (Q16539 whole entry): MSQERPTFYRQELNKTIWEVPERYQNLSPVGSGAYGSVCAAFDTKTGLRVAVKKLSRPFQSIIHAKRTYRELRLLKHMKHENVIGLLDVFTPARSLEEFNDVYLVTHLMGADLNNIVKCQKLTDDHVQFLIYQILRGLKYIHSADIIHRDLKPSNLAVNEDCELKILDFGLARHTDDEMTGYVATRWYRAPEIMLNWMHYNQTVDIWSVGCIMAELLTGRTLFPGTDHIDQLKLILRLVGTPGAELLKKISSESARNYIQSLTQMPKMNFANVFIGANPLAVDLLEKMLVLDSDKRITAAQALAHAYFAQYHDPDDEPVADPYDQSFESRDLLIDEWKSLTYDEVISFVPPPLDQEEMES

340 wild-type kinases [8] = target: T8, 340 wild-type kinases (Homo sapiens, UniProt Q9H0K1)
T8 construct: purchased Reaction Biology Europe
T8 sequence (Q9H0K1 whole entry): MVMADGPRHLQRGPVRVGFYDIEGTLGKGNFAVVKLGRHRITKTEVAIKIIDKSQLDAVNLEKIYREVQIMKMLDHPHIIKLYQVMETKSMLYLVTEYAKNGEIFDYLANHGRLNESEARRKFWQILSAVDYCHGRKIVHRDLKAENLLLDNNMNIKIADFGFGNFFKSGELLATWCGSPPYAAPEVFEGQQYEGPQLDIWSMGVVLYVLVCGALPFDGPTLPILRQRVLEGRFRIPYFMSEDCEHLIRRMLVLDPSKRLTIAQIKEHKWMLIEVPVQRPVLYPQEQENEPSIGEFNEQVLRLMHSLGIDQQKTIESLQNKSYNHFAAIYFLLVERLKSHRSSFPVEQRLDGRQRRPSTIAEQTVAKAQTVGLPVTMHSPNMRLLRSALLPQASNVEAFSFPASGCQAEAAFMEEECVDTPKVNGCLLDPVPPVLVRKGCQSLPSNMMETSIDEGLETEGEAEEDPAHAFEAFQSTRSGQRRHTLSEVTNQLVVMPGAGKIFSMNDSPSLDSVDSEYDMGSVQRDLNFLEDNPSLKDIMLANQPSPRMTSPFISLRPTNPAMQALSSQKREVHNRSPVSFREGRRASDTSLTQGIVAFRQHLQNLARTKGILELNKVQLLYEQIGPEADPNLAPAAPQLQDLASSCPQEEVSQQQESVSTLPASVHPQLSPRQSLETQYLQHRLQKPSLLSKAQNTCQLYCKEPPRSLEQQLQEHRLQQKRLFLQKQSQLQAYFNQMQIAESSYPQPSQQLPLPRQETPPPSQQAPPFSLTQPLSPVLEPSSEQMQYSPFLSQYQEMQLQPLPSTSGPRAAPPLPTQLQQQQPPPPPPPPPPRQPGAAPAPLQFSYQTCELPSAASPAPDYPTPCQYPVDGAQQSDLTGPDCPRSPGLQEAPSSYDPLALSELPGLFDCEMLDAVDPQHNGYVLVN

340 wild-type kinases [9] = target: T9, 340 wild-type kinases (Homo sapiens, UniProt Q9HAZ1)
T9 construct: purchased Reaction Biology Europe
T9 sequence (Q9HAZ1 whole entry): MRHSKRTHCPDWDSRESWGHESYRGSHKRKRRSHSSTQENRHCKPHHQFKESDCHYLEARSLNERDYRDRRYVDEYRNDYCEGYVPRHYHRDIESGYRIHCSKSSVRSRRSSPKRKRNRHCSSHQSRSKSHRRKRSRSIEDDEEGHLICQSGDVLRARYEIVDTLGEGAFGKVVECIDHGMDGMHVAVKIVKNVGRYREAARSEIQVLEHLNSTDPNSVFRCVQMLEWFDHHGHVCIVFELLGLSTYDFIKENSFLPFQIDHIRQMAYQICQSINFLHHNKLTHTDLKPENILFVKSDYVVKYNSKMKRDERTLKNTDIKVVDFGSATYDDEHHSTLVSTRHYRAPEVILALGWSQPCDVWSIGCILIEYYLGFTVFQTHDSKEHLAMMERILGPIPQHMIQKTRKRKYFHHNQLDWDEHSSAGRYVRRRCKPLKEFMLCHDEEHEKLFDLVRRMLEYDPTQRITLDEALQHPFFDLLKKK

CNC(=O)c1ccc2c(c1)C(=O)c1ccc(Nc3ccc(F)c(NC(=O)C4CC4)c3)cc1CC2 [Compound 2015] showed a remaining activity at 0.2 µM (340 wild-type kinases [1]; 0.2 µM 2015, read-out: MKK7 residual activity) of 102%, a remaining activity at 1 µM (340 wild-type kinases [1]; 1 µM 2015, read-out: MKK7 residual activity) of 117% and a remaining activity at 0.2 µM (340 wild-type kinases [1]; MKK7, 0.2 µM, read-out: residual activity) of 102%. For the same molecule, the remaining activity at 1 µM (340 wild-type kinases [1]; MKK7, 1 µM, read-out: residual activity) was 117%, the remaining activity at 0.2 µM (340 wild-type kinases [2]; 0.2 µM 2015, read-out: LCK residual activity) was 104% and the remaining activity at 1 µM (340 wild-type kinases [2]; 1 µM 2015, read-out: LCK residual activity) was 95.6%. The remaining activity at 0.2 µM (340 wild-type kinases [2]; LCK, 0.2 µM, read-out: residual activity) was 104%, the remaining activity at 1 µM (340 wild-type kinases [2]; LCK, 1 µM, read-out: residual activity) was 95.6% and the remaining activity at 0.2 µM (340 wild-type kinases [3]; 0.2 µM 2015, read-out: ACVR1B residual activity) was 101%. It also gave a remaining activity at 0.2 µM (340 wild-type kinases [3]; ACVR1B, 0.2 µM, read-out: residual activity) of 101%, a remaining activity at 1 µM (340 wild-type kinases [3]; ACVR1B, 1 µM, read-out: residual activity) of 86.1% and a remaining activity at 0.2 µM (340 wild-type kinases [4]; 0.2 µM 2015, read-out: MAP3K9 residual activity) of 114%. It also gave a remaining activity at 1 µM (340 wild-type kinases [4]; 1 µM 2015, read-out: MAP3K9 residual activity) of 96.4%, a remaining activity at 0.2 µM (340 wild-type kinases [4]; MAP3K9, 0.2 µM, read-out: residual activity) of 114% and a remaining activity at 1 µM (340 wild-type kinases [4]; MAP3K9, 1 µM, read-out: residual activity) of 96.4%. For the same molecule, the remaining activity at 0.2 µM (340 wild-type kinases [5]; 0.2 µM 2015, read-out: PKCzeta residual activity) was 126%, the remaining activity at 0.2 µM (340 wild-type kinases [5]; 0.2 µM 2015, read-out: PKMzeta residual activity) was 106% and the remaining activity at 1 µM (340 wild-type kinases [5]; 1 µM 2015, read-out: PKCzeta residual activity) was 111%. For the same molecule, the remaining activity at 1 µM (340 wild-type kinases [5]; 1 µM 2015, read-out: PKMzeta residual activity) was 102%, the remaining activity at 0.2 µM (340 wild-type kinases [5]; PKCzeta, 0.2 µM, read-out: residual activity) was 126% and the remaining activity at 1 µM (340 wild-type kinases [5]; PKCzeta, 1 µM, read-out: residual activity) was 111%. The remaining activity at 0.2 µM (340 wild-type kinases [6]; 0.2 µM 2015, read-out: LKB1/MO25a/STRADa residual activity) was 115%, the remaining activity at 1 µM (340 wild-type kinases [6]; 1 µM 2015, read-out: LKB1/MO25a/STRADa residual activity) was 91.6% and the remaining activity at 0.2 µM (340 wild-type kinases [6]; LKB1/MO25a/STRADa, 0.2 µM, read-out: residual activity) was 115%. It also gave a remaining activity at 1 µM (340 wild-type kinases [6]; LKB1/MO25a/STRADa, 1 µM, read-out: residual activity) of 91.6%, a remaining activity at 0.2 µM (340 wild-type kinases [7]; 0.2 µM 2015, read-out: p38alpha residual activity) of 5.35% and a remaining activity at 1 µM (340 wild-type kinases [7]; 1 µM 2015, read-out: p38alpha residual activity) of 1.8%. The remaining activity at 0.2 µM (340 wild-type kinases [7]; p38alpha, 0.2 µM, read-out: residual activity) was 5.35%, the remaining activity at 1 µM (340 wild-type kinases [7]; p38alpha, 1 µM, read-out: residual activity) was 1.8% and the remaining activity at 0.2 µM (340 wild-type kinases [8]; 0.2 µM 2015, read-out: SIK2 residual activity) was 101%. For the same molecule, the remaining activity at 1 µM (340 wild-type kinases [8]; 1 µM 2015, read-out: SIK2 residual activity) was 98.1%, the remaining activity at 0.2 µM (340 wild-type kinases [8]; SIK2, 0.2 µM, read-out: residual activity) was 101% and the remaining activity at 1 µM (340 wild-type kinases [8]; SIK2, 1 µM, read-out: residual activity) was 98.1%. It also gave a remaining activity at 0.2 µM (340 wild-type kinases [9]; 0.2 µM 2015, read-out: CLK4 residual activity) of 120%, a remaining activity at 0.2 µM (340 wild-type kinases [9]; CLK4, 0.2 µM, read-out: residual activity) of 120% and a remaining activity at 1 µM (340 wild-type kinases [9]; CLK4, 1 µM, read-out: residual activity) of 118%.
